Reference: Sander's compilation of Henry's law constants (doi:10.1021/es00034a021)

Assay: Henry solubility constant Hcp at 298.15 K (mol/(m3 Pa))
Conditions: reference: Tse et al. (1992)

Row | Structure (SMILES) | Henry solubility constant Hcp
1 | BrC(Br)Br [tribromomethane] | 0.019
2 | ClCC(Cl)(Cl)Cl [1,1,1,2-tetrachloroethane] | 0.0045
3 | CC(Cl)(Cl)Cl [1,1,1-trichloroethane] | 0.00063
4 | C=C(Cl)Cl [1,1-dichloroethene] | 0.00035
5 | ClC(Cl)C(Cl)Cl [1,1,2,2-tetrachloroethane] | 0.026
6 | ClCC(Cl)Cl [1,1,2-trichloroethane] | 0.011
7 | ClC(Br)Br [dibromochloromethane] | 0.0093
8 | ClC(Cl)(Cl)Cl [tetrachloromethane] | 0.00038
9 | ClC(Cl)Br [bromodichloromethane] | 0.0048
10 | CC(Cl)CCl (stereo not drawn) [1,2-dichloropropane] | 0.0038
11 | BrCBr [dibromomethane] | 0.011
12 | ClCCl [dichloromethane] | 0.0039
13 | ClC=C(Cl)Cl [trichloroethene] | 0.0011
